From ChEMBL document CHEMBL1212922, “Crystal structure-based selective targeting of the pyridoxal 5'-phosphate dependent enzyme kynurenine aminotransferase II for cognitive enhancement” (J Med Chem, 2010)
pIC50: −log10 of the molar value.

How the values were obtained:
[1] = target: T1, Kynurenine/alpha-aminoadipate aminotransferase, mitochondrial (Homo sapiens, UniProt Q8N5Z0); test: Inhibition of human recombinant MBP-KAT2 expressed in HEK293 cells assessed as conversion of L-kynurenine to kynurenic acid after 1 hr
[2] = target: T2, Kynurenine--oxoglutarate transaminase 1 (Homo sapiens, UniProt Q16773); test: Inhibition of human recombinant MBP-KAT1 expressed in Escherichia coli BL21 assessed as conversion of L-kynurenine to kynurenic acid after 1 hr
T2 sequence (Q16773 whole entry): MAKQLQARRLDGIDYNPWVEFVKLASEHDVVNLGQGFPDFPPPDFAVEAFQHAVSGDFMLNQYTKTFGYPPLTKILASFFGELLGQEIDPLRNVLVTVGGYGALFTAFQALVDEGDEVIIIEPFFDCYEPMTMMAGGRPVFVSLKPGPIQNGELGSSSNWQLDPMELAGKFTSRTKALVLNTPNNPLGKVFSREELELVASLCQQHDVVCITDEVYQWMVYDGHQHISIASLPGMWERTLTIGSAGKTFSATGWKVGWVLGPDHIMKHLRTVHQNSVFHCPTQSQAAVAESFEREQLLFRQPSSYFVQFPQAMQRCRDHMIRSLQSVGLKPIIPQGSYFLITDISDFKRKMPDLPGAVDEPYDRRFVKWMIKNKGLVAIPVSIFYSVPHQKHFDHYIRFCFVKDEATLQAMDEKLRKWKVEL

[3] = target: Kynurenine/alpha-aminoadipate aminotransferase, mitochondrial (Rattus norvegicus, UniProt Q64602); test: Inhibition of rat brain KAT2
[4] = target: Kynurenine 3-monooxygenase (Homo sapiens) (UniProt O15229); test: Inhibition of kynurenine 3-monooxygenase in human prefrontal cortex homogenates at 100 uM; assay type: tissue-based
[5] = target: T2, Kynurenine--oxoglutarate transaminase 1; test: Inhibition of KAT1 in human prefrontal cortex homogenates; assay type: tissue-based
[6] = target: T3, Kynureninase (Homo sapiens) (UniProt Q16719); test: Inhibition of kynureninase in human prefrontal cortex homogenates at 100 uM; assay type: tissue-based
T3 sequence (whole entry): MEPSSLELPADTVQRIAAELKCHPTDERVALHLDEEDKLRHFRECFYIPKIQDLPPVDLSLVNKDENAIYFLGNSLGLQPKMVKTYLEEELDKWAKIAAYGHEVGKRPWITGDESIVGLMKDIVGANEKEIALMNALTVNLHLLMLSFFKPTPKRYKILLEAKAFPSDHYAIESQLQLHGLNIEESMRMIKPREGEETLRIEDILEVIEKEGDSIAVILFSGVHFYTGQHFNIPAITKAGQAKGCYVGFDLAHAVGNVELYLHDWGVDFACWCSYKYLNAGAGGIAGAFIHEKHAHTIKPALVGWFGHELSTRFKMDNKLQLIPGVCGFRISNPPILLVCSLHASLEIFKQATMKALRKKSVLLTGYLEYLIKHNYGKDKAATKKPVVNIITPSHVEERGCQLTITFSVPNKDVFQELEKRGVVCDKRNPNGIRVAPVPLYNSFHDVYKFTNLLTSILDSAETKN

[7] = target: T1, Kynurenine/alpha-aminoadipate aminotransferase, mitochondrial; test: Inhibition of KAT2 in human prefrontal cortex homogenates; assay type: tissue-based

T1 sequence (Q8N5Z0 whole entry): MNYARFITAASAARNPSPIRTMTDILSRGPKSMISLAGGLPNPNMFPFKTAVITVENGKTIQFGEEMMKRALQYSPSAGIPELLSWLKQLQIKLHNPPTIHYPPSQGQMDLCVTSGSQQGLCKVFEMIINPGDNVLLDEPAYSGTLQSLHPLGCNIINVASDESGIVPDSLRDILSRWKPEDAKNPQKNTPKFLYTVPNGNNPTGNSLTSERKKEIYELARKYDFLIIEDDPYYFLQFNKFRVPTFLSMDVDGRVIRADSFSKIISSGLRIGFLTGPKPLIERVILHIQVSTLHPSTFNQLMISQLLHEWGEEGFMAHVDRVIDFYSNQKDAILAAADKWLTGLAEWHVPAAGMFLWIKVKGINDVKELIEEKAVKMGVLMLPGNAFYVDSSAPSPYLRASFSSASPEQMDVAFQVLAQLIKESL
Chain of Kynurenine/alpha-aminoadipate aminotransferase, mitochondrial (Rattus norvegicus, UniProt Q64602) (Q64602 whole entry): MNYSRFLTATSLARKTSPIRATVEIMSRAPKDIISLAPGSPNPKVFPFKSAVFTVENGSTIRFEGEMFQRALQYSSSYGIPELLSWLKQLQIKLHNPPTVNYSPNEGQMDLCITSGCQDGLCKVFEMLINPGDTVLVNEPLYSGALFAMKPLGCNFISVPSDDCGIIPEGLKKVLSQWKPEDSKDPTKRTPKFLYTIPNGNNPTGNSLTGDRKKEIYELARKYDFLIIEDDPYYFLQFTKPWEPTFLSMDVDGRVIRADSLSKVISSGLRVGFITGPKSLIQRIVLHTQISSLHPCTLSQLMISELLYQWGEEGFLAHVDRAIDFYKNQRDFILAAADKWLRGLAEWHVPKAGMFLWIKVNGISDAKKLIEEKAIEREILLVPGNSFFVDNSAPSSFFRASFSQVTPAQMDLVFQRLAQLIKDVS
Chain of Kynurenine 3-monooxygenase (Homo sapiens) (O15229 whole entry, looked up): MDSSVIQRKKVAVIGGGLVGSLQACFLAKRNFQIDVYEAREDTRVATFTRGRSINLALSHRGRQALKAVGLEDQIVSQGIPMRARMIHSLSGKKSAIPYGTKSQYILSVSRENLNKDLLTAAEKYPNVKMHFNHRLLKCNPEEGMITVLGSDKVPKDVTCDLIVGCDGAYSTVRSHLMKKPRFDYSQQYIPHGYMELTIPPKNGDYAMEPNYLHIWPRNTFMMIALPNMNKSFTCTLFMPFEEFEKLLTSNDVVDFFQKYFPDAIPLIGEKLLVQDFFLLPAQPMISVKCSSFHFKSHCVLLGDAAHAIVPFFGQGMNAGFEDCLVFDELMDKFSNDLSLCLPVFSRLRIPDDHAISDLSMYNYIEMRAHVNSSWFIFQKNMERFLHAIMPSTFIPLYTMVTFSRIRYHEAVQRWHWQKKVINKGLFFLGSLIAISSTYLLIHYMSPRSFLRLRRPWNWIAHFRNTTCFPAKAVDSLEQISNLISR

pIC50 [1]	pIC50 [2]	pIC50 [3]	inhibition [4]	pIC50 [5]	inhibition [6]	pIC50 [7]	SMILES
5.82	–	–	–	–	–	–	C[C@@H]1COc2c(N3CCN(N)CC3)c(F)cc3c(=O)c(C(=O)O)cn1c23
6.04	< 4.52	6.00	8.3%	< 4.52	5.1%	6.00	C[C@H]1COc2c(N3CCN(N)CC3)c(F)cc3c(=O)c(C(=O)O)cn1c23
